EC50 data for 17 compounds are collected here from patent US9260418B2, “Pyranyl aryl methyl benzoquinolinone M1 receptor positive allosteric modulators” (Merck Sharp & Dohme Corp., priority 2009, dated 2016).

The target in this experiment is T1, acetylcholine muscarinic M1 receptor (Homo sapiens, UniProt P11229).
T1 construct: expressed in transfected cells; host or cells: CHOnfat cells (CHO), under Geneticin selection; b382 calls them CHOK1/hM1
T1 sequence (P11229 1-460): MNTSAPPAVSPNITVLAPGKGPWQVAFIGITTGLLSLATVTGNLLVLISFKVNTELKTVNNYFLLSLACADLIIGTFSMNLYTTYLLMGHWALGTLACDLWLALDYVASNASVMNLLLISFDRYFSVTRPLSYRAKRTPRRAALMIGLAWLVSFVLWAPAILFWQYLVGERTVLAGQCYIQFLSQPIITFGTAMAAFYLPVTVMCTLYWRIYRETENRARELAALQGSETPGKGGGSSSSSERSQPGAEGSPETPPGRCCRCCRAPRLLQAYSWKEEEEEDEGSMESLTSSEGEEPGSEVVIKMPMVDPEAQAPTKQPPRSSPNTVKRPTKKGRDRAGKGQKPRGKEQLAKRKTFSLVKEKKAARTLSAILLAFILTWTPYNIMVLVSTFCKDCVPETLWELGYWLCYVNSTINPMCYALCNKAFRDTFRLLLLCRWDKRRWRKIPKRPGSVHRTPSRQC
Put plainly: muscarinic FLIPR intracellular calcium assay, potentiation of EC20 acetylcholine in CHOnfat/hM1 cells. Conditions: inflection point calculated from FLIPR values, 4 min preincubation, then EC20 acetylcholine (3 nM final), read-out: IP Value. It counts as cell-based. As to the method: The assay studies the effect of one or several concentrations of test compounds on basal or acetylcholine-stimulated Ca^2+ levels using FLIPR.
Compounds are prepared and subjected to a preincubation period of 4 min. Thereafter, a single EC20 concentration of acetylcholine is added to each well (3 nM final). The intracellular Ca^2+ level of each sample is measured and compared to an acetylcholine control to determine any modulatory activity.
Cells: CHOnfat/hM1, hM2, hM3 or hM4 cells are plated 24 hr before the assay at a density of 18,000 cells/well (100 μL) in a 384 well plate. CHOnfat/hM1 and CHOnfat/hM3 Growth Medium: 90% DMEM (Hi Glucose); 10% HI FBS; 2 mM L-glutamine; 0.1 mM NEAA; Pen-Strep; and 1 mg/ml Geneticin, are added. For M2Gqi5CHOnfat and M4Gqi5CHOnfat cells, an additional 600 ug/ml hygromycin is added.
Equipment: 384 well plate, 120 μL addition plate; 96-well Whatman 2 ml Uniplate Incubator, 37° C., 5% CO2; Skatron EMBLA-384 Plate Washer; Multimek Pipetting System; Genesis Freedom 200 System; Mosquito System; Temo Nanolitre Pipetting System; and FLIPR^384 Fluorometric Imaging Plate Reader System are used.
Buffers. Assay Buffer: Hanks Balanced Salt Solution, with 20 mM Hepes, 2.5 mM Probenecid (Sigma P-8761) first dissolved in 1 N NaOH, 1% Bovine Serum Albumin (Sigma A-9647). Dye Loading Buffer: Assay Buffer plus 1% Fetal Bovine Serum and Fluo-4AM/Pluronic Acid Mixture. 2 mM Fluo-4AM ester stock in DMSO (Molecular Probes F-14202) Concentration of 2 μM in buffer for a final concentration of 1 μM in Assay. 20% Pluronic Acid Solution stock, with concentration of 0.04% in Buffer, 0.02% in Assay.
65 μL of 2 mM Fluo-4AM are mixed with 130 μL of 20% Pluronic Acid. The resulting solution and 650 μL FBS is added to the assay buffer for a total volume of 65 mL. Positive Controls: 4-Br-A23187: 10 mM in DMSO; final concentration 10 μM. Acetylcholine: 10 mM in water, working stock at both 20 μM and 30 μM in assay buffer, final concentration of 10 μM. This is used to check the maximum stimulation of the CHOK1/hM1 cells. 20 μM (2×) acetylcholine is added in the preincubation part of the assay, and the 30 μM (3×) stock is added in the second part. (EC20)Acetylcholine: 10 mM in water, working stock of 9 nM (3×), and final concentration in assay is 3 nM. This is used after the preincubation with test compounds. Addition of the EC20 Acetylcholine to each well with a test compound will ascertain any modulator activity. 24 wells contain 3 nM Acetylcholine alone as a control.
Screening Plate: Compounds are titrated in 96-well plates (columns 2-11), 100% DMSO, started at a concentration of 15 mM (150× stock concentration), and 3-fold serial dilutions using Genesis Freedom200 System. Four 96-well plates are combined into a 384-well plate using Mosquito Nanolitre Pipetting System by transferring 1 μl of serial diluted compounds to each well, and 1 mM acetylcholine (100× stock concentration) were added as a control. Using Temo, 49 μl assay buffer is added to each well of the 384-well plate right before assay.
In a 96-well Whatman 2 ml Uniplate, 9 nM Acetylcholine (3×) is pipetted into wells corresponding to the screening compounds, and into control wells. The 30 μM acetylcholine control (3×) is added into control wells, and the 3× agonist plate is transferred into a 384 well plate.
Cells are washed three times with 100 μL of buffer, leaving 30 μL of buffer in each well. Using Multimek, 30 μL of Dye Loading Buffer is added into each well and incubated at 37° C., 5% CO2 for up to one hr.
After 60 min, the cells are washed three times with 100 μL of buffer, leaving 30 μL of buffer in each well. The cell plate, screening plate, and agonist addition plates are placed on the platform in the FLIPR and the door closed. A signal test to check background fluorescence and basal fluorescence signal is performed. Laser intensity is adjusted if necessary. […]
`O=c1c2cc(Cc3ccc(Cl)nc3)c3ccccc3c2ncn1[C@H]1CCSC[C@@H]1O` [Example 33, 6-[(6-Chloropyridin-3-yl)methyl]-3-[(3R,4S)-3-hydroxytetrahydro-2H-thiopyran-4-yl]benzo[h]quinazolin-4(3H)-one]: the EC50 was 10 nM.

Take `CN(C)C(=O)c1ccc(Cc2cc3c(=O)n([C@H]4CCOC[C@@H]4O)cnc3c3ccccc23)cn1` [Example 19, 5-({3-[(3R,4S)-3-Hydroxytetrahydro-2H-pyran-4-yl]-4-oxo-3,4-dihydrobenzo[h]quinazolin-6-yl}methyl)-N,N-dimethylpyridine-2-carboxamide]: the EC50 is 318 nM.

`CC(C)(O)c1ccc(Cc2cc3c(=O)n([C@H]4CCOC[C@@H]4O)cnc3c3ccccc23)cn1` [Example 11, 6-{[6-(1-Hydroxy-1-methylethyl)pyridine-3-yl]methyl}-3-[(3R,4S)-3-hydroxytetrahydro-2H-pyran-4-yl]benzo[h]quinazolin-4(3H)-one]: the EC50 was 76 nM.

`O=c1c2cc(Cc3ccnc(F)c3)c3ccccc3c2ncn1[C@H]1CCOC[C@@H]1O` [Example 25, 6-[(2-Fluoropyridin-4-yl)methyl]-3-[(3R,4S)-3-hydroxytetrahydro-2H-pyran-4-yl]benzo[h]quinazolin-4(3H)-one]: the EC50 was 15 nM.

As for `Cn1cc(Br)c2c(Cc3cc4c(=O)n([C@H]5CCOC[C@@H]5O)cnc4c4ccccc34)ccnc21` [Example 31, 6-[(3-Bromo-1-methyl-1H-pyrrolo[2,3-b]pyridine-4-yl)methyl]-3-[(3R,4S)-3-hydroxytetrahydro-2H-pyran-4-yl]benzo[h]quinazolin-4(3H)-one], the EC50 is 275 nM.

`CCn1ccc2c(Cc3cc4c(=O)n([C@H]5CCOC[C@@H]5O)cnc4c4ccccc34)ccnc21` [Example 32, 6-[(1-Ethyl-1H-pyrrolo[2,3-b]pyrdin-4-yl)methyl]-3-[(3R,4S)-3-hydroxytetrahydro-2H-pyran-4-yl]benzo[h]quinazolin-4(3H)-one]: the EC50 is 32 nM.

For the compound `CCOc1ccc(Cc2cc3c(=O)n([C@H]4CCOC[C@@H]4O)cnc3c3ccccc23)cn1` [Example 27, 6-[(6-Ethyoxypyridin-3-yl)methyl]-3-[(3R,4S)-3-hydroxytetrahydro-2H-pyran-4-yl]benzo[h]quinazolin-4(3H)-one], the EC50 is 27 nM.

As to `O=c1c2cc(Cc3ccc(-c4cscn4)nc3)c3ccccc3c2ncn1[C@H]1CCOC[C@@H]1O` [Example 13, 3-[(3R,4S)-3-Hydroxytetrahydro-2H-pyran-4-yl]-6-{[6-(1,3-thiazol-4-yl)pyridine-3-yl]methyl}benzo[h]quinazolin-4(3H)-one], the EC50 was 5.8 nM.

For the compound `Cc1ccc(-c2ccc(Cc3cc4c(=O)n([C@H]5COCC[C@@H]5O)cnc4c4ccccc34)cn2)cn1` [Example 34, 3-[(3S,4S)-4-Hydroxytetrahydro-2H-pyran-3-yl]-6-[(6′-methyl-2,3-bipyridin-5-yl)methyl]benzo[h]quinazolin-4(3H)-one], the EC50 is 7.1 nM.

Take `O=c1c2cc(Cc3cccnc3)c3ccccc3c2ncn1[C@H]1CCOC[C@@H]1O` [Example 6]: the EC50 is 23 nM.

`O=c1c2cc(Cc3ccc(CO)nc3)c3ccccc3c2ncn1[C@H]1CCOC[C@@H]1O` [Example 21, 6-{[6-(Hydroxymethyl)pyridine-3-yl]methyl}-[(3R,4S)-3-hydroxytetrahydro-2H-pyran-4-yl]benzo[h]quinazolin-4(3H)-one]: the EC50 is 28 nM.

For `N#Cc1ccc(Cc2cc3c(=O)n([C@H]4CCOC[C@@H]4O)cnc3c3ccccc23)cn1` [Example 8, 5-({3-[(3R,4S)-3-Hydroxytetrahydro-2H-pyran-4-yl]-4-oxo-3,4-dihydrobenzo[h]quinazolin-6-yl}methyl)pyridine-2-carbonitrile], the EC50 was 31 nM.

As to `CCc1ccc(Cc2cc3c(=O)n([C@H]4CCOC[C@@H]4O)cnc3c3ccccc23)cn1` [Example 9, 6-[(6-Ethylpyridin-3-yl)methyl]-3-[(3R,4S)-3-hydroxytetrahydro-2H-pyran-4-yl]benzo[h]quinazolin-4(3H)-one], the EC50 is 16 nM.

As for `CSc1ccc(Cc2cc3c(=O)n([C@H]4CCOC[C@@H]4O)cnc3c3ccccc23)cn1` [Example 2, 3-[(3R,4S)-3-Hydroxytetrahydro-2H-pyran-4-yl]-6-{[(6-methylthio)pyridin-3-yl)methyl]benzo[h]quinazolin-4(3H)-one], the EC50 was 14 nM.

Consider `COc1cc(Cc2cc3c(=O)n([C@H]4CCOC[C@@H]4O)cnc3c3ccccc23)ccn1` [Example 26, 3-[(3R,4S)-3-Hydroxytetrahydro-2H-pyran-4-yl]-6-[(2-methoxypyridin-4-yl)methyl]benzo[h]quinazolin-4(3H)-one], for which the EC50 was 34 nM.

Regarding `O=c1c2cc(Cc3ccc(Cl)nc3)c3ccccc3c2ncn1C1CCNCC1` [Example 37, 6-[(6-Chloropyridin-3-yl)methyl]-3-piperidin-4-ylbenzo[h]quinazolin-4(3H)-one], the EC50 was 4800 nM.

With `O=c1c2cc(Cc3ccnc(OC(F)F)c3)c3ccccc3c2ncn1[C@H]1CCOC[C@@H]1O` [Example 30, 6-{[2-(Difluoromethoxy)pyridine-4-yl]methyl}-3-[(3R,4S)-3-hydroxytetrahydro-2H-pyran-4-yl]benzo[h]quinazolin-4(3H)-one], the EC50 is 77 nM.
